Source: ChEMBL document CHEMBL5726255, “Biaryl acyl-sulfonamide compounds as sodium channel inhibitors” (2017)
pIC50: −log10 of the molar value.

What was measured:
[1] = target: Sodium channel protein type 9 subunit alpha (Homo sapiens, UniProt Q15858); assay: Nav 1.7 In Vitro Patch Express (PX) Assay: HEK 293 cells stably transfected with human Nav1.7 were recorded in whole cell voltage clamp mode with the PatchXpress automated electrophysiology system (Molecular Devices, LLC, Sunnyvale, Calif.). Compound effects were measured on a partially inactivated state of the sodium channel. Cells were clamped to a holding potential yielding 20 to 50% inactivation. To elicit sodium current, channels were activated by pulsing to −10 mV for 20 msec. This voltage protocol was repeated at a rate of 0.1 Hz throughout the experiment. A single concentration of test compound was applied to cells for a duration of 3 minutes. Peak sodium current was measured at the end of the compound addition period to determine percent inhibition. Three to five cells were tested per concentration, and IC50 curves were fitted to percent inhibition as a function of concentration.
Sodium channel protein type 9 subunit alpha, sequence (Q15858 whole entry): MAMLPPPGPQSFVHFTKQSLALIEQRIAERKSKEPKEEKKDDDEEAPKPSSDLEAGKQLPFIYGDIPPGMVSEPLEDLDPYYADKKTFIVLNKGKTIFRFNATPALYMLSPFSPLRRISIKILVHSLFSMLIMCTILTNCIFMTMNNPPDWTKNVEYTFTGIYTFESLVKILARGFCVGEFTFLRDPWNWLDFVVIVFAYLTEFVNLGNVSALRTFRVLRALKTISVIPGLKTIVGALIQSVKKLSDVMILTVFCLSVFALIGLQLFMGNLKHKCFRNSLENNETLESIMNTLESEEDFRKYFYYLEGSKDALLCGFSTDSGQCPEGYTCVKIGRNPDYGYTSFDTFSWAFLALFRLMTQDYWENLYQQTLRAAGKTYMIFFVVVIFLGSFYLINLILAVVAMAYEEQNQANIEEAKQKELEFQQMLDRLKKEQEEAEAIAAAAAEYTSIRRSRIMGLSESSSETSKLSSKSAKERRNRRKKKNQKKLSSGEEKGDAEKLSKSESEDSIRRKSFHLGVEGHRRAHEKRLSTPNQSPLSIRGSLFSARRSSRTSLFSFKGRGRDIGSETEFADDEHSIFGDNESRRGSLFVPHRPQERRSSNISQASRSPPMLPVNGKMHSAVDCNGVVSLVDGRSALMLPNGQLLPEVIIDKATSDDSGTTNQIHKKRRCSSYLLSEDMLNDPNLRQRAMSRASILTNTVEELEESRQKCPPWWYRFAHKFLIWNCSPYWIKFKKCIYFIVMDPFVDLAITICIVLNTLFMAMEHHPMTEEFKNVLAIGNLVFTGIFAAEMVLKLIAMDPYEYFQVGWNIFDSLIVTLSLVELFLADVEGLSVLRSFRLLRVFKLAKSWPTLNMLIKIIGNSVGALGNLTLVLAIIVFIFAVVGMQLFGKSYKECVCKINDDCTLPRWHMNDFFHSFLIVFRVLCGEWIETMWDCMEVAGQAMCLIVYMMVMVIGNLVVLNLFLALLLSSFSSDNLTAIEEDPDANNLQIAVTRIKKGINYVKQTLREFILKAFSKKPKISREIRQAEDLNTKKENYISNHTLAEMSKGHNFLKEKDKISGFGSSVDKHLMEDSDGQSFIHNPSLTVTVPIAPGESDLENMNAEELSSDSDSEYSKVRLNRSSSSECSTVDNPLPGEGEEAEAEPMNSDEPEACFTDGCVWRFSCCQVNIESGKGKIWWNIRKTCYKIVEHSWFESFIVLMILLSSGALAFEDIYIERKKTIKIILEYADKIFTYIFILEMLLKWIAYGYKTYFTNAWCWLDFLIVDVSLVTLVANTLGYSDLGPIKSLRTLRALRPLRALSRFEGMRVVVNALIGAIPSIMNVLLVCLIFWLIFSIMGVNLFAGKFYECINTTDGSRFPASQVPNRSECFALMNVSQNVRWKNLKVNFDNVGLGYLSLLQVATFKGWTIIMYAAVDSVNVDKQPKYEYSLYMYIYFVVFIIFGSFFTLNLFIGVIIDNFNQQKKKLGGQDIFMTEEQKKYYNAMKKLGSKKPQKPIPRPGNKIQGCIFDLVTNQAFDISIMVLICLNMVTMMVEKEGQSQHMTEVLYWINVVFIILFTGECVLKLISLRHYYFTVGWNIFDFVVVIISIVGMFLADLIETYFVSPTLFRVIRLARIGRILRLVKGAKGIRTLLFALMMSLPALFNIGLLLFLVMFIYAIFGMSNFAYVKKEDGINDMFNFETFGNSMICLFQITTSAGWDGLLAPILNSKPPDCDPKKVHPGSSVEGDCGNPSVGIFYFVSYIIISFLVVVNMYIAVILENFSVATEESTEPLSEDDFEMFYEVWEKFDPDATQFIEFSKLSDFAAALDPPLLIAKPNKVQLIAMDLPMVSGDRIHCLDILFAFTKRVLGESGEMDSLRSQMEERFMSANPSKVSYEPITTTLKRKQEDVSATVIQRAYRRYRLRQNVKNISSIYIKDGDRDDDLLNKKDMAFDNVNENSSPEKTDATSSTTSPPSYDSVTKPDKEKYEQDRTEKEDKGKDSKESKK

[2] = target: Sodium channel protein type 5 subunit alpha (Homo sapiens, UniProt Q14524); assay: Nav 1.5 In Vitro PX Assay: 293 cells stably transfected with human Nav 1.5 were recorded in whole cell voltage clamp mode with the PatchXpress automated electrophysiology system according the manufacturer's specifications (Molecular Devices, LLC, Sunnyvale, Calif.). Cells were held at a holding potential of −50 mV to inactivate sodium channels. To elicit sodium currents the voltage was changed to …
Sodium channel protein type 5 subunit alpha, sequence (Q14524 whole entry): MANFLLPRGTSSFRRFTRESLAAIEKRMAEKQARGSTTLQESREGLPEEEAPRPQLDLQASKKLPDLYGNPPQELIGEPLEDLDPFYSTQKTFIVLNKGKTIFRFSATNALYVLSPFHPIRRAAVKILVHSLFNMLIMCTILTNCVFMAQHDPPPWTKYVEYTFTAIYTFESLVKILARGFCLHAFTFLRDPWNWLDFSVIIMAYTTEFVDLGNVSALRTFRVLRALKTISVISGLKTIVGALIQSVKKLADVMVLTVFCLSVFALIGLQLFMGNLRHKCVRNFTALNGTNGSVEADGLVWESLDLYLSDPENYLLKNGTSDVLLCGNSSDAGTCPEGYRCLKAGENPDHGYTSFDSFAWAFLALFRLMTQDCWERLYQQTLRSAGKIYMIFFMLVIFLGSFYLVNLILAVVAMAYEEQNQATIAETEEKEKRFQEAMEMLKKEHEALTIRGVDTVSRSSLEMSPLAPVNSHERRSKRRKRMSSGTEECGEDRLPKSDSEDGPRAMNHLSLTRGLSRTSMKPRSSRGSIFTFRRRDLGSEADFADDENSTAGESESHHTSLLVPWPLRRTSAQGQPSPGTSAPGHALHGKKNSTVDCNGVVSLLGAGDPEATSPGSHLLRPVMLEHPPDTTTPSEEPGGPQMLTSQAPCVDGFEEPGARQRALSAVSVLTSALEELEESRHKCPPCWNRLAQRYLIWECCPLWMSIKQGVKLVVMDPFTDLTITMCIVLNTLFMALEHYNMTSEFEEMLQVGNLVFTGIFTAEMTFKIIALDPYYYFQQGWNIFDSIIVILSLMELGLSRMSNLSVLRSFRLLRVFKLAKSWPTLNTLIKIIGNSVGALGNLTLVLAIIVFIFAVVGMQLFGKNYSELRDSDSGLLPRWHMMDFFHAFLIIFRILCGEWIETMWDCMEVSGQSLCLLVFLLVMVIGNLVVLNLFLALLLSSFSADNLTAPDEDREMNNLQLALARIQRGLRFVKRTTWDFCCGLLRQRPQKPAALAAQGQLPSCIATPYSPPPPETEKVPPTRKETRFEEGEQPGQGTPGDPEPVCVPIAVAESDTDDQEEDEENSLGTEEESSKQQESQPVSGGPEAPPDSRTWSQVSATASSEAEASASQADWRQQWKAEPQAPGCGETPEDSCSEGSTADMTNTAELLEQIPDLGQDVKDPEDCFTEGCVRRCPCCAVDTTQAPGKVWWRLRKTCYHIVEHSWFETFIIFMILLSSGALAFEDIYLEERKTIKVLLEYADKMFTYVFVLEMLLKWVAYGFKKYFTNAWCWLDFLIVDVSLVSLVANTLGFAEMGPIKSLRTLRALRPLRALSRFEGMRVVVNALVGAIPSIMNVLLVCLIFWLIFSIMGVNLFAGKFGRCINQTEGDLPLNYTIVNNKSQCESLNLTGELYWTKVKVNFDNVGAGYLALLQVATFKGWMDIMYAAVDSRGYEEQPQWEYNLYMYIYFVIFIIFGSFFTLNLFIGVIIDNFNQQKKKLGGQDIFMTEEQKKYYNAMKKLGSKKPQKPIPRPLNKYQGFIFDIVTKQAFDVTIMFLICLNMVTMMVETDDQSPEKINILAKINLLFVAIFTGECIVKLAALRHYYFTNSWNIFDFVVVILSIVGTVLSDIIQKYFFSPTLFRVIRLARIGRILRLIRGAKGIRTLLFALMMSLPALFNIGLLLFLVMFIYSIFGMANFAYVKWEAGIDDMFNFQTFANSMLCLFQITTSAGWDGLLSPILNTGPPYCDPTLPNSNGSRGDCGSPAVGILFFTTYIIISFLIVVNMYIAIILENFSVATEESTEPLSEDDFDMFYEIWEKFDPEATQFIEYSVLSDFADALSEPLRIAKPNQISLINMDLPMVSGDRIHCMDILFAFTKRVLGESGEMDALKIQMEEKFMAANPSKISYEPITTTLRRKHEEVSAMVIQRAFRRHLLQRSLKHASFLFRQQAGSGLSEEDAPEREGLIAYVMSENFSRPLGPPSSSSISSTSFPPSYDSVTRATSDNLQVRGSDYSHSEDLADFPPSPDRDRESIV
Description: Nav 1.5 In Vitro PX Assay: 293 cells stably transfected with human Nav 1.5 were recorded in whole cell voltage clamp mode with the PatchXpress automated electrophysiology system according the manufacturer's specifications (Molecular Devices, LLC, Sunnyvale, Calif.). Cells were held at a holding potential of −50 mV to inactivate sodium channels. To elicit sodium currents the voltage was changed to −120 mV to recover a portion of the channels, followed by delivery of test pulses of 20 msec duration to 0 mV, at 0.1 Hz. A single concentration of test compound was applied to cells for a duration of 5 minutes. Peak sodium current was measured at the end of the compound addition period to determine percent inhibition. A minimum of two cells were tested per concentration.

Row | SMILES | pIC50 [1] | pIC50 [2]
1 | COc1cc(C(=O)NS(C)(=O)=O)ccc1-c1cnc(Oc2c(Cl)ccc(Cl)c2C)c(C#N)c1 | 7.76 | 
2 | Cc1cc(C(=O)NS(=O)(=O)C2CCC2)c(F)cc1-c1cnc(OC2CCC2)c(Cl)c1 | 7.13 | < 5.31
3 | Cc1cc(C(=O)NS(C)(=O)=O)c(F)cc1-c1cnc(O[C@H](C)c2cc(Cl)ccc2Cl)c(Cl)c1 | 7.34 | 
4 | CC(C)COc1ncc(-c2cc(F)c(C(=O)NS(C)(=O)=O)cc2F)cc1Br | 6.25 | 
5 | CS(=O)(=O)NC(=O)c1cc(F)c(-c2cnc(Oc3ccc(F)c4c3CCC4)c(Cl)c2)cc1F | 7.02 | 
